Values joined by “and” are separate entries in the source; they are usually repeats but may differ in a detail not shown here. Equal values may be shown once.
Tests used:
normal canines = assay: In vivo renal function, peptide infusion in normal canines; parameters: species or system canine; conditions: for RBF / GFR / DFRNa (distal fractional reabsorption of Na+) / PFRNa (proximal fractional reabsorption of Na+) / MAP: SEM
neprilysin (NEP) = conditions: cited from earlier work
[1] = Post-I (after 30-min washout), lithium clearance, mean ± SEM
[2] = Pre-I (prior to infusion, baseline), lithium clearance technique, mean ± SEM
[3] = normal canines, infusion 32 mmol/kg/min

With “CNP: native C-type natriuretic peptide, 22 amino acids, selective pGC-B activator” the RBF (normal canines; 30 min I (16th-45th min of infusion, 32 mmol/kg/min), mean ± SEM) was 294 ± 31 mL/min, the RBF (normal canines; 60 min I (46th-75th min of infusion, 32 mmol/kg/min), mean ± SEM) was 278 ± 29 mL/min and the GFR (normal canines; Post-I (after 30-min washout), inulin clearance, mean ± SEM) was 48.8 ± 5.6 mL/min. The “DFRNa (distal fractional reabsorption of Na+)” value (normal canines; [1]) was 97±0.8%, the “PFRNa (proximal fractional reabsorption of Na+)” value (normal canines; [1]) was 73±2% and the RBF (normal canines; Post-I (after 30-min washout), mean ± SEM) was 270 ± 25 mL/min. The RBF (normal canines; Pre-I (prior to infusion, baseline), electromagnetic flow probe, mean ± SEM) was 273 ± 26 mL/min, the “DFRNa (distal fractional reabsorption of Na+)” value (normal canines; [2]) was 98±0.6% and the “PFRNa (proximal fractional reabsorption of Na+)” value (normal canines; [2]) was 80±3%. The MAP (normal canines; dog, in vivo, iv) was 127±4 mmHg and 128±4 mmHg, the GFR (normal canines; dog, in vivo) was 52.3 ± 5.1 mL/min and the MAP (normal canines; dog, in vivo) was 123±4 mmHg and 128±4 mmHg. For the same substance, the “net renal generation of cGMP (in words)” value (normal canines; [3]) was “unchanged”, the “plasma cGMP (in words)” value (normal canines; [3]) was “modestly increased” and the “urinary cGMP excretion (in words)” value (normal canines; [3]) was “unchanged”. The “susceptibility to enzymatic degradation by NEP (in words)” value (neprilysin (NEP)) was “highly susceptible”.
